Test results reported in article PMC11881035, “^68Ga-Labeled Glycopeptides as Effective Tools for Liver Function Imaging” (Molecular Pharmaceutics, 2025).
Where two headings read alike, the source gives them in different places.

Tests used:
[1] = biological target: T1, ASGR (Mus musculus, UniProt P24721+P34927); assay: blocking experiment, coinjection of N-acetylgalactosamine, biodistribution in BALB/c mice; conditions: in vivo, 30 min p.i., 27.7 μmol N-acetylgalactosamine
T1 construct: from tissue; host or cells: liver and other organs of living healthy female BALB/c mice
T1 sequence (P34927 1-284): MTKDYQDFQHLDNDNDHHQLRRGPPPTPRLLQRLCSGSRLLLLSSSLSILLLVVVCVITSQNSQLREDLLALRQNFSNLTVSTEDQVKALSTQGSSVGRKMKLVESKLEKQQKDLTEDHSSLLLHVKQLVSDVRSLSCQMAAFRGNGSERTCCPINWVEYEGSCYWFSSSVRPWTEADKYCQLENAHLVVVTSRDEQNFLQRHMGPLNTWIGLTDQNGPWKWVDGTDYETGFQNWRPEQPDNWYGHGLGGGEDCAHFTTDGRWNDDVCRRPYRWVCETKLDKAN
T1 sequence (P24721 1-301): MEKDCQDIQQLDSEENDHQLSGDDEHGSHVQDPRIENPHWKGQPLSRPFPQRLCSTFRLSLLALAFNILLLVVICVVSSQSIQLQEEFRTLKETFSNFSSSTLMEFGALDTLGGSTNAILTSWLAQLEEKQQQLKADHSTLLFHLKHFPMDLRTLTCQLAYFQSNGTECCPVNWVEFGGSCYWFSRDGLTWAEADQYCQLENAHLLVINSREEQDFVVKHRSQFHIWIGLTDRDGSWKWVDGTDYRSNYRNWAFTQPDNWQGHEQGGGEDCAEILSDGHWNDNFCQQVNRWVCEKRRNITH
Experimental: Less liver uptake was found for [^68Ga]Ga-NODAGA-HexaLysan (55.5 ± 7.4% ID/g, 30 min p.i.) and least for [^68Ga]Ga-NODAGA-TriLysan (9.4 ± 2.0% ID/g, 30 min p.i.). […] However, an increasing activity accumulation in the intestine was found for [^68Ga]Ga-NODAGA-NonaLysan, [^68Ga]Ga-NODAGA-GalNAc-Nonalysan, and [^68Ga]Ga-NODAGA-HexaLysan over time. Nevertheless, liver-to-organ ratios were highest for [^68Ga]Ga-NODAGA-NonaLysan (Figure 3). Lower liver-to-organ ratios were found for the GalNAc derivative due to higher off-target binding in the pancreas, stomach, heart, muscle, lung, and femur. […] Coinjection of both nonamers with a large excess of N-acetylgalactosamine led to a statistically significant reduction of liver uptake indicating specific interactions of the tracers with their target (Figure 4). As a consequence of the reduced liver uptake also a reduction of the intestinal uptake was observed.
Figure 4 Data (% ID/g) from the blocking experiments using ^68Ga-labeled NODAGA-GalNAc-NonaLysan and NODAGA-NonaLysan in healthy BALB/c mice at 30 min p.i. Blocking was carried out using 27.7 μmol of N-acetylgalactosamine (**p ≤ 0.01; *p ≤ 0.05).

[2] = complex stability in PBS; type: physicochemical
Experimental: (§1) The ^68Ge/^68Ga generator, devices for analytical HPLC, semipreparative HPLC, mass spectrometry, radio-thin layer chromatography, gamma counter and animal models for biodistribution and imaging studies including the image reconstruction procedures were the same as described before.[22] Stability assays in PBS and human blood serum, protein binding as well as determination of log D values followed established protocols.[25] Binding affinities (IC50) of selected ligands were determined in an isolated receptor-based assay according to a previously published procedure with minor modifications.[22] Dilutions of nonradioactive complexes were made with PBS + 0.1% BSA (10^–5–10^–12 M). Preparation of [^125I]I-Asialoorosomucoid which serves as the radioactive standard ligand has been published recently.[21]

[3] = log D determination; type: physicochemical; conditions: read-out: log D
Experimental: as §1

[4] = biodistribution in healthy BALB/c mice; conditions: mouse, in vivo; for tissue uptake at 10 min: 10 min p.i.; for tissue uptake at 0.5 h: 30 min p.i.; for tissue uptake at 1 h: 60 min p.i.
Experimental: as §1
Animal experiments were performed in accordance with the Austrian animal experiments law (BGBl. I Nr. 114/2012) and the institution’s animal welfare standards as approved by the Austrian Federal Ministry of Education, Science and Research (BMBWF, 2022–0.311.708). Imaging experiments were conducted at Werner Siemens Imaging Center (Tübingen, Germany) according to the German animal welfare act as approved by the local authorities (R5/19 G, R09/21 G).
Figure 2 Biodistribution data (% ID/g) of ^68Ga-labeled NODAGA-GalNAc-NonaLysan, NODAGA-NonaLysan, NODAGA-HexaLysan, and NODAGA-TriLysan in healthy BALB/c mice at 10, 30, and 60 min p.i. (100 pmol, 1 MBq).

[5] = complex stability in human blood serum; type: in vitro ADME
Experimental: as §1

[6] = protein binding in human serum; type: in vitro ADME; conditions: human, serum, read-out: protein binding (%) (converted)
Experimental: as §1

tissue uptake at 0.5 h ([1]; read-out: Blood uptake): 0.4 ± 0.1 %ID/g
tissue uptake at 0.5 h ([1]; read-out: Femur uptake): 0.7 ± 0.3 %ID/g
tissue uptake at 0.5 h ([1]; read-out: Heart uptake): 0.8 ± 0.1 %ID/g
tissue uptake at 0.5 h ([1]; read-out: Intestine uptake): 1.9 ± 0.4 %ID/g
tissue uptake at 0.5 h ([1]; read-out: Kidneys uptake): 1.9 ± 0.4 %ID/g
tissue uptake at 0.5 h ([1]; read-out: Liver uptake): 52.9 ± 3.2 %ID/g
tissue uptake at 0.5 h ([1]; read-out: Lung uptake): 1.3 ± 0.3 %ID/g
tissue uptake at 0.5 h ([1]; read-out: Muscle uptake): 1 ± 0.3 %ID/g
tissue uptake at 0.5 h ([1]; read-out: Pancreas uptake): 1.5 ± 0.8 %ID/g
tissue uptake at 0.5 h ([1]; read-out: Spleen uptake): 0.3 ± 0.02 %ID/g
tissue uptake at 0.5 h ([1]; read-out: Stomach uptake): 2.4 ± 0.9 %ID/g
complex stability in PBS (% intact ligand) ([2]; 2 min): 99.1%
complex stability in PBS (% intact ligand) ([2]; 30 min): 99.0%
complex stability in PBS (% intact ligand) ([2]; 60 min): 99.1%
complex stability in PBS (% intact ligand) ([2]; 120 min): 99.1%
logD [3]: -4.05
tissue uptake at 10 min ([4]; read-out: Blood uptake): 0.9 ± 0.5 %ID/g
tissue uptake at 10 min ([4]; read-out: Femur uptake): 0.9 ± 0.4 %ID/g
tissue uptake at 10 min ([4]; read-out: Heart uptake): 1.9 ± 0.5 %ID/g
tissue uptake at 10 min ([4]; read-out: Intestine uptake): 1.3 ± 0.3 %ID/g
tissue uptake at 10 min ([4]; read-out: Kidneys uptake): 3.6 ± 2.7 %ID/g
tissue uptake at 10 min ([4]; read-out: Liver uptake): 69.4 ± 5 %ID/g
tissue uptake at 10 min ([4]; read-out: Lung uptake): 1.5 ± 0.1 %ID/g
tissue uptake at 10 min ([4]; read-out: Muscle uptake): 1.3 ± 0.3 %ID/g
tissue uptake at 10 min ([4]; read-out: Pancreas uptake): 5 ± 0.5 %ID/g
tissue uptake at 10 min ([4]; read-out: Spleen uptake): 0.3 ± 0.1 %ID/g
tissue uptake at 10 min ([4]; read-out: Stomach uptake): 2.3 ± 0.4 %ID/g
tissue uptake at 0.5 h ([4]; read-out: Blood uptake): 0.3 ± 0.1 %ID/g
tissue uptake at 0.5 h ([4]; read-out: Femur uptake): 0.8 ± 0.1 %ID/g
tissue uptake at 0.5 h ([4]; read-out: Heart uptake): 1.7 ± 0.2 %ID/g
tissue uptake at 0.5 h ([4]; read-out: Intestine uptake): 3.5 ± 0.2 %ID/g
tissue uptake at 0.5 h ([4]; read-out: Kidneys uptake): 1.5 ± 0.2 %ID/g
tissue uptake at 0.5 h ([4]; read-out: Liver uptake): 77.6 ± 8 %ID/g
tissue uptake at 0.5 h ([4]; read-out: Lung uptake): 1.5 ± 0.2 %ID/g
tissue uptake at 0.5 h ([4]; read-out: Muscle uptake): 1.2 ± 0.1 %ID/g
tissue uptake at 0.5 h ([4]; read-out: Pancreas uptake): 5.6 ± 0.6 %ID/g
tissue uptake at 0.5 h ([4]; read-out: Spleen uptake): 0.3 ± 0.03 %ID/g
tissue uptake at 0.5 h ([4]; read-out: Stomach uptake): 2.7 ± 1 %ID/g
tissue uptake at 1 h ([4]; read-out: Blood uptake): 0.3 ± 0.1 %ID/g
tissue uptake at 1 h ([4]; read-out: Femur uptake): 0.9 ± 0.4 %ID/g
tissue uptake at 1 h ([4]; read-out: Heart uptake): 1.7 ± 0.1 %ID/g
tissue uptake at 1 h ([4]; read-out: Intestine uptake): 5.6 ± 0.03 %ID/g
tissue uptake at 1 h ([4]; read-out: Kidneys uptake): 1.3 ± 0.02 %ID/g
tissue uptake at 1 h ([4]; read-out: Liver uptake): 57.6 ± 0.7 %ID/g
tissue uptake at 1 h ([4]; read-out: Lung uptake): 1.2 ± 0.04 %ID/g
tissue uptake at 1 h ([4]; read-out: Muscle uptake): 1.1 ± 0.1 %ID/g
tissue uptake at 1 h ([4]; read-out: Pancreas uptake): 5 ± 0.6 %ID/g
tissue uptake at 1 h ([4]; read-out: Spleen uptake): 0.3 ± 0.1 %ID/g
tissue uptake at 1 h ([4]; read-out: Stomach uptake): 2.2 %ID/g
complex stability in serum (% intact ligand) ([5]; 2 min): 98.8 ± 0.1%
complex stability in serum (% intact ligand) ([5]; 30 min): 98.8%
complex stability in serum (% intact ligand) ([5]; 60 min): 99.0 ± 0.2%
complex stability in serum (% intact ligand) ([5]; 120 min): 98.8 ± 0.2%
fraction unbound ([6]; 2 min): 0.858
fraction unbound ([6]; 30 min): 0.86
fraction unbound ([6]; 60 min): 0.826
fraction unbound ([6]; 120 min): 0.884
Compound: CC(=O)N[C@@H]1[C@@H](O)[C@@H](O)[C@@H](CO)O[C@H]1n1cc(CCCCC(=O)NCCCC[C@H](NC(=O)CCCNC(=O)CCC(C(=O)O)N2CCN(CC(=O)O)CCN(CC(=O)O)CC2)C(=O)NCC(=O)NCC(=O)N[C@@H](CCCCNC(=O)CCCCc2cn([C@@H]3O[C@H](CO)[C@H](O)[C@H](O)[C@H]3NC(C)=O)nn2)C(=O)NCC(=O)NCC(=O)N[C@@H](CCCCNC(=O)CCCCc2cn([C@@H]3O[C@H](CO)[C@H](O)[C@H](O)[C@H]3NC(C)=O)nn2)C(=O)NCC(=O)NCC(=O)N[C@@H](CCCCNC(=O)CCCCc2cn([C@@H]3O[C@H](CO)[C@H](O)[C@H](O)[C@H]3NC(C)=O)nn2)C(=O)NCC(=O)NCC(=O)N[C@@H](CCCCNC(=O)CCCCc2cn([C@@H]3O[C@H](CO)[C@H](O)[C@H](O)[C@H]3NC(C)=O)nn2)C(=O)NCC(=O)NCC(=O)N[C@@H](CCCCNC(=O)CCCCc2cn([C@@H]3O[C@H](CO)[C@H](O)[C@H](O)[C@H]3NC(C)=O)nn2)C(=O)NCC(=O)NCC(=O)N[C@@H](CCCCNC(=O)CCCCc2cn([C@@H]3O[C@H](CO)[C@H](O)[C@H](O)[C@H]3NC(C)=O)nn2)C(=O)NCC(=O)NCC(=O)N[C@@H](CCCCNC(=O)CCCCc2cn([C@@H]3O[C@H](CO)[C@H](O)[C@H](O)[C@H]3NC(C)=O)nn2)C(=O)NCC(=O)NCC(=O)N[C@@H](CCCCNC(=O)CCCCc2cn([C@@H]3O[C@H](CO)[C@H](O)[C@H](O)[C@H]3NC(C)=O)nn2)C(=O)NCC(=O)NCC(N)=O)nn1 (stereo partly drawn) [[^68Ga]Ga-NODAGA-GalNAc-NonaLysan, metal not drawn]
